Laboratory results: patent publication US20130158024A1, “TRICYCLIC NECROSTATIN COMPOUNDS” (priority 2005, published 2013)
Entries after “also recorded” stand apart in the source; their conditions may differ.

How the values were obtained:
Jurkat T cells = assay: Necrosis (CICD) of Jurkat T cells induced by Fas ligand, cycloheximide and zVAD, ATP assay; assay type: cell-based, human; conditions: FasL/CHX/zVAD
Procedure, shortened: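 Jurkat cells given FasL (5 ng/ml), cycloheximide (1 μg/ml) and zVAD.fmk (100 μM) to drive CICD, with compounds at the indicated amounts. Viability read as ATP by CellTiter-Glo after 36 h, relative to untreated cells without FasL (100%).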

Jurkat cells = assay: Apoptosis of Jurkat cells induced by FasL without or with cycloheximide; assay type: cell-based, human; conditions: FasL or FasL/CHX, no zVAD
Experimental: Jurkat cells were treated with 5 ng/ml of FasL without (A) or with cyclohexamide (CHX) (B) to induce apoptosis, or 5 ng/ml FasL, 1 μg/ml of CHX and 100 μM of zVAD.fmk to induce CICD (B). […] Cell viability was determined after 24 hours of incubation with indicated reagents using CellTiter-Glo ATP assay. The values represent viability relative to the control Jurkat cells without the treatment of FasL, which was set as 100% viability.
Cells were stained with DiOC6 or annexin V and EGFP-PI as described in FIG. 26A and FIG. 26B. […] Cell viability was determined by an ATP assay. Numbers represent viability normalized to that of the compound-treated cells in the absence of TNFα. […]
We seeded cells in 96-well plates (white plates for luminescent assays; black plates for fluorescent assays; clear plates for MTT assay) at the density of 5,000-10,000 cells per well for adherent cells or 20,000-50,000 cells per well for suspension cells in 100 μl of the appropriate phenol red-free media. After incubation, we determined cell viability using one of the following methods. For the ATP assay, we used luminescence-based commercial kits (CellTiter-Glo, Promega or ATPLite-M, PerkinElmer) and analyzed luminescence using a Wallac Victor II plate reader (PerkinElmer). For Sytox assay, we incubated cells with 1 μM Sytox Green reagent for thirty minutes at 37° C., and then performed fluorescent reading. […]

FADD deficient JK cells = assay: MNNG-induced death of FADD deficient JK cells; assay type: cell-based, human; conditions: 30 μM Nec-1, 5 hours
LC3-II = LC3-II induction (autophagy marker) in cultured cells, western blotting; assay type: cell-based
From the text: FIG. 11 is a set of gels showing the detection of cleaved LC3 in CICD of cultured cells and in ischemic brain injury. […] Equal amounts of cellular proteins were subjected to SDS-PAGE and western blotting with anti-LC3 and tubulin antibodies. Arrows point to the LC3II. […] Isoflurane-anesthetized SV-129 mice were subjected to two hours transient middle cerebral artery (MCA) occlusion by the intraluminal filament techniques. Ischemic and contralateral areas of the brain were collected at indicated times following MCA, lysed in RIPA buffer and equal amount of total protein were subjected to western blotting using anti-LC3 and tubulin antibodies. FIG. 11C is similar to FIG. 11B, except that mice were injected with 2 μL of 4 mM 7-Cl-Nec-1 icy at four and six hours, and brains were collected at eight hours after occlusion.
In this and subsequent panels, cell viability was determined via ATP assay. Numbers represent viability normalized to that of the DMSO-treated cells in the absence of TNFα and menadione. Throughout, error bars represent standard deviations. […] Representative images are shown. […] The ratio of LC3-II to tubulin signals was calculated (“Ratio”) and normalized to the value in the control sample. […] In FIG. 28H, expression of beclin-1 (“Bec”) and tubulin (“Tub”) in the stable populations of cells in FIG. 28G was analyzed by western blotting.

[1] = tested on: RIP kinase-induced necroptosis in FADD-deficient Jurkat cells; assay: Necroptosis induced by dimerized RIP kinase in FADD-deficient Jurkat cells, FACS; assay type: cell-based, human; conditions: dimerizer AP1510, zVAD.fmk, 48 hours
Experimental: Percentage of PI-negative, GFP-positive cells (“Viability, %”) was determined by FACS. Numbers represent viability normalized to that of the compound-treated cells in the absence of dimerizer. Error bars represent standard deviations.

methylthiohydantoin-tryptophane [Nec-1] was tested, and the “inhibition of CICD/necrosis of Jurkat cells, in words” value (Jurkat T cells) was “protected against CICD induced by FasL/CHX/zVAD; also recorded: efficiently inhibited by Nec-1; also recorded: inhibited all published examples of necrotic cell death induced by DR activation in the presence of caspase inhibitors”, the “protection from apoptosis, in words” value (Jurkat cells) was “but not apoptosis induced by FasL or FasL/CHX; also recorded: lack of cytoprotection by Nec-1 in apoptotic Jurkat cells treated with FasL-CHX for 24 hours; also recorded: but not by Nec-1; also recorded: could not be inhibited by Nec-1; also recorded: had no effect on FasL-CHX-induced accumulation of annexin V-positive and propidium iodide (PI)-negative cells” and the “protection from MNNG-induced death, in words” value (FADD deficient JK cells) was “failed to protect cells from DNA alkylating agent 1-methyl-3-nitro-1-nitrosoguanidine (MNNG)-induced death”. For the same substance, the “LC3-II induction caused by rapamycin, in words” value (LC3-II; BALB/c 3T3 cells, 2 μM rapamycin) was “had no effect on the LC3-II induction caused by rapamycin”, the “necroptotic LC3-II induction in cells, in words” value (LC3-II; necroptotic stimuli (TNFα, TNFα-zVAD.fmk, FasL-zVAD.fmk)) was “the appearance of LC3II was efficiently inhibited by Nec-1; also recorded: efficiently blocked the necroptotic LC3-II induction” and the “inhibition of RIP kinase-induced necroptosis, in words” value [1] was “inhibits RIP kinase-induced necroptosis; also recorded: inhibited by Nec-1”.
